What all share (test): NCI anticancer screen, dose series, 48 h
Test [1] relates to HCT-116 colon.
In test [2] the test system is HOP-62 NSCLC.
Test [3] relates to HOP-92 NSCLC.
Test [4] deals with KM12 colon.
The subject of test [5] is NCI-H226 lung.
In test [6] the test system is OVCAR-4 ovarian.
Test [7] concerns RXF 393 renal.
In test [8] the test system is SF-539 CNS.
Test [9] concerns SN12C renal.
The subject of test [10] is UACC-62 melanoma.

Values joined by “and” are separate entries in the source; they are usually repeats but may differ in a detail not shown here. Identical values can stand only once.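 Values below derive from 48-hour exposures of cells grown in 96-well plates, with endpoints linearly interpolated between the two concentrations bracketing the appropriate inhibition level. GI50: concentration for 50% inhibition of growth. TGI: concentration producing complete growth inhibition.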 Some results are limits rather than exact numbers.

As for `CN(C)CCN=c1nc2c(c(N)n1-c1ccccc1)c(=S)n(-c1ccccc1)c(=S)n2-c1ccccc1`, the GI50 in [1] was 2.24 µM; in [2] it was 2.73 µM; in [3], 1.62 µM; in [4], 3.8 µM; in test [5] it was 13 µM; in test [6], 2.98 µM. Besides, the GI50 in test [7] was 2.62 µM; in [8], 1.68 µM; in test [9] it was 6.21 µM; in test [10] it was 1.78 µM. Further, the TGI in [1] turned out to be 9.38 µM; in test [2] it was 10.8 µM; in [3], 12.6 µM; in [4] it was 14.2 µM; in [5], 27.6 µM; in test [6], 9.01 µM. Besides, the TGI in test [7] turned out to be 7.8 µM; in [8], 3.29 µM; in test [9], 20.5 µM; in test [10], 3.41 µM.

Consider `Cc1c(-c2ccc(-c3ccccc3F)cc2)nc2ccc(F)cc2c1C(=O)O`, for which the GI50 was 0.5 µM in test [1]; 0.5 µM in test [2]; 27.7 µM in [3]; 0.645 µM and 0.889 µM in [4]; 38.3 µM and 29.4 µM in test [5]; 41 µM and 81.6 µM in test [6]. Moreover, the GI50 in test [7] was 76 µM; in [8] it was 0.0959 µM and 0.5 µM; in test [9] it was 2.63 µM and 5.25 µM; in test [10] it was 0.5 µM. Besides, the TGI is 78.7 µM and 124 µM in test [1]; 35 µM and 199 µM in [2]; 88.6 µM in test [3]; 109 µM and 198 µM in [4]; 216 µM and 209 µM in [5]; 88.7 µM and 524 µM in [6]. The TGI in test [7] was 121 µM and 236 µM; in test [8] it was 25.6 µM and 110 µM and 29.9 µM; in [9], 80.6 µM and 280 µM; in test [10] it was 48.4 µM and 164 µM.

As for `CC(=O)c1nc(-c2ccc(C[C@@H](CNC(=O)CN(C)C)NC(=O)c3ccc(OC(C)C)c(Cl)c3)cc2)cn1C`, the GI50 is 0.0393 µM in [1]; 0.0614 µM in [2]; 1.52 µM in test [3]; 0.0662 µM in [4]; 12.6 µM in test [5]; 0.842 µM in [6]. Besides, the GI50 in [7] is 0.0628 µM; in test [8], 0.0341 µM; in [9] it was 0.0579 µM; in test [10], 0.0587 µM. The TGI in test [1] was 13.1 µM; in [2], 16.9 µM; in [3], 13.8 µM; in test [4], 21.1 µM; in test [5], 33.9 µM; in test [6], 22.9 µM. The TGI worked out at 16.6 µM in test [7], 3.03 µM in test [8], 17.1 µM in test [9] and 19.1 µM in [10].

For `S=C(Nc1ccc(-c2nc3ccccc3s2)cc1)Nc1ccc(-c2nc3ccccc3s2)cc1`, the GI50 in test [1] was 16.6 µM; in test [2] it was 37.5 µM; in [3] it was 15.3 µM; in [4], 20.1 µM; in test [5], 14 µM; in test [6], 24.4 µM. Besides, the GI50 was 15.9 µM in test [7], 16.6 µM in [8], 16.7 µM in [9] and 15.7 µM in test [10]. For the same compound, the TGI in test [1] was 33.9 µM; in test [2], greater than 100 µM; in test [3], 53.6 µM; in test [4] it was greater than 100 µM; in test [5], 38.8 µM; in test [6] it was 99.4 µM. The TGI in test [7] worked out at 50.4 µM; in test [8] it was 42.4 µM; in test [9], 44.5 µM; in test [10], 32 µM.

Consider `CCOC(=O)C(Cc1cc(OC)c(CC(C(=O)OCC)C(=O)OCC)cc1OC)C(=O)OCC`, for which the TGI in [1] is greater than 100 µM; in [2] it was greater than 100 µM; in test [3], 83.8 µM; in [4], greater than 100 µM; in test [5], greater than 100 µM; in [6], greater than 100 µM. The TGI in test [7] is 97.7 µM; in test [8], greater than 100 µM; in [9] it was greater than 100 µM; in [10], greater than 100 µM.

With `O=C1N=C2N=C(c3ccc(Cl)cc3)N(c3ccc(Cl)cc3)N2Sc2ccccc21`, the TGI in [1], in test [2], in test [3], in [4], in [5] and in test [6] was greater than 100 µM in each case. Besides, the TGI in test [7], in test [8], in test [9] and in test [10] was greater than 100 µM in each case.

Regarding `O=C(OCC1=CC(=O)c2ccccc2C1=O)c1ccccc1`, the GI50 in [1] was 15.5 µM; in test [2] it was 14.4 µM; in test [3], 20.2 µM; in [4], 11.6 µM; in [5], 14.1 µM; in test [6] it was 13.2 µM. The GI50 in [7] is 13.6 µM; in test [8] it was 12.2 µM; in test [9] it was 15.1 µM; in test [10] it was 3.27 µM. Further, the TGI in test [1] amounted to 29.7 µM; in test [2], 29.6 µM; in test [3] it was 34.9 µM; in test [4], 24.7 µM; in [5], 31.5 µM; in test [6], 28.4 µM. For the same compound, the TGI in test [7] was found to be 26.5 µM; in test [8], 25.3 µM; in test [9], 28.5 µM; in [10], 9.02 µM.

For `O=C(Nc1ccccc1)N1C(c2ccccc2)=N[C@@H](c2ccccc2)[C@@H]1c1ccccc1`, the TGI is 36.3 µM in test [1]; 47.9 µM in test [2]; 53.3 µM in [3]; 34 µM in test [4]; 46.4 µM in test [5]; 44.6 µM in [6]. The TGI in [7] is 34.2 µM; in [8], 33.7 µM; in [9] it was 47.2 µM; in test [10], 34.7 µM.

As to `CC(C)(C)OC(=O)NCCCCCCCCCCCCn1c2c(c3ccccc3c1=O)C(=O)c1ccccc1-2`, the GI50 was greater than 100 µM in test [1]; 32.7 µM in test [2]; 16.8 µM in [3]; greater than 100 µM in test [4]; 58.1 µM in test [5]; greater than 100 µM in test [6]. The GI50 in [7] was 17.8 µM; in test [8] it was 20.6 µM; in [9], greater than 100 µM; in [10] it was 27.4 µM. Besides, the TGI was greater than 100 µM in test [1]; greater than 100 µM in [2]; 39.9 µM in [3]; greater than 100 µM in test [4]; greater than 100 µM in [5]; greater than 100 µM in test [6]. Also, the TGI in [7] is 49.2 µM; in test [8], 61.9 µM; in test [9], greater than 100 µM; in test [10], greater than 100 µM.

Regarding `C/C(=C\c1ccccc1)C(=O)c1c(C)cc(C)cc1C`, the TGI in test [1], in [2], in test [3], in [4], in test [5] and in [6] was greater than 100 µM each time. Further, the TGI in test [7], in test [8], in test [9] and in test [10] was greater than 100 µM in each case.

For `Cc1cc(C)nc(NC(=O)COc2ccc(Cl)cc2)c1`, the TGI in test [1], in test [2], in test [3], in [4], in test [5] and in test [6] was greater than 100 µM each time. Moreover, the TGI in test [7], in test [8], in test [9] and in test [10] was greater than 100 µM in each case.

Consider `C=C1C(=O)O[C@@H]2C[C@@H](C)[C@@H]3C=CC(=O)[C@@]3(C)[C@@H](OC(=O)CCCC(=O)O[C@H]3[C@@H]4C(=C)C(=O)O[C@@H]4C[C@@H](C)[C@@H]4C=CC(=O)[C@]43C)[C@H]12`, for which the TGI in [1] turned out to be 0.03 µM; in [2], 2.61 µM; in [3], 0.104 µM; in [4], 0.662 µM; in [5], 1.35 µM; in test [6], 0.262 µM. For the same compound, the TGI in test [7] was found to be 0.047 µM; in [8], 0.185 µM; in test [9], 0.0938 µM; in test [10], 0.103 µM.

For the compound `CCOC(=O)c1sc(NC(=O)COc2ccc(/C=C3\CCc4cc(OC)ccc4C3=O)cc2)nc1C`, the GI50 is 12.9 µM in test [1]; 15.2 µM in [2]; 1.18 µM in test [3]; 7.13 µM in [4]; 13.3 µM in [5]; 11.8 µM in [6]. The GI50 in [7] is 12 µM; in [8] it was 11.7 µM; in [9], 4.66 µM; in test [10], 11.3 µM. Also, the TGI was determined as 25.6 µM in test [1]; 30.6 µM in test [2]; 4.61 µM in test [3]; 21.5 µM in test [4]; 27.3 µM in [5]; 27.7 µM in test [6]. The TGI in [7] was found to be 29.3 µM; in test [8], 23.9 µM; in test [9], 21 µM; in test [10], 23.4 µM.

Take `COc1cccc(C=NC23CC4CC(CC(C4)C2)C3)c1`: the TGI in test [1], in test [2], in test [3], in test [4], in [5] and in [6] was greater than 100 µM each time. Further, the TGI in test [7], in test [8], in [9] and in test [10] was greater than 100 µM throughout.

On to `CNC(=O)NCCCCC(NC(C)=O)C(=O)NCc1ccccc1` (stereo not given), for which the TGI in [1], in test [2], in [3], in test [4], in test [5] and in test [6] was greater than 100 µM throughout. Further, the TGI in [7], in test [8], in [9] and in test [10] was greater than 100 µM in each case.

For the compound `COc1ccc(/C=C(\C#N)c2cc(OC)c(OC)c(OC)c2)cc1`, the GI50 is 0.0161 µM in test [1]; less than 0.0184 µM in [2]; 0.277 µM in [3]; less than 0.01 µM in test [4]; 0.0252 µM in [5]; 0.0297 µM in [6]. For the same compound, the GI50 is less than 0.0141 µM in [7], 0.0199 µM in test [8], 0.0486 µM in [9] and 0.0103 µM in [10]. The TGI in [1] is greater than 100 µM; in test [2], greater than 100 µM; in test [3], 25.1 µM; in [4], greater than 100 µM; in test [5], 0.0706 µM; in test [6], greater than 100 µM. Besides, the TGI in test [7] was greater than 90.7 µM; in test [8], greater than 100 µM; in test [9], greater than 100 µM; in test [10], greater than 100 µM.

For the compound `CCOC1=C/C(=N\Nc2ccc([N+](=O)[O-])cc2)CCC1`, the TGI in test [1], in test [2], in [3], in [4], in test [5] and in test [6] was greater than 100 µM throughout. In addition, the TGI is 63.1 µM in [7], greater than 100 µM in [8], greater than 100 µM in test [9] and 67.4 µM in test [10].

Source of the values: PubChem BioAssay (NCI).
